Measured values from BindingDB's records for PubMed 9400006 (Emory University, 1997).

Columns and labels:
[1] = biological target: T1, Muscarinic acetylcholine receptor M2 (Rattus norvegicus, UniProt P10980)
T1 sequence (P10980 whole entry): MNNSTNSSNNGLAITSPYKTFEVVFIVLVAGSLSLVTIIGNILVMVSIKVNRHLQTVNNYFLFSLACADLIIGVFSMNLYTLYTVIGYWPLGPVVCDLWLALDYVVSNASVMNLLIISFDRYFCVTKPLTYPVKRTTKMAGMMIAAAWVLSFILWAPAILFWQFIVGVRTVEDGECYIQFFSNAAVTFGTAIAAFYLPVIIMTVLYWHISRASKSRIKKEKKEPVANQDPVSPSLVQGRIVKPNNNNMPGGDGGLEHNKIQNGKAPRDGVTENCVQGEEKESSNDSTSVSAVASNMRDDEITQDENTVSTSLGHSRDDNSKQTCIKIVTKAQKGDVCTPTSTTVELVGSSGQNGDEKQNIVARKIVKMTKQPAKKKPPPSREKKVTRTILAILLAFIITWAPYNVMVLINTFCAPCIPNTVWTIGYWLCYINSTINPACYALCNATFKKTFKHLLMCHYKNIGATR

[2] = biological target: T2, 5-hydroxytryptamine receptor 1A (Rattus norvegicus, UniProt P19327)
T2 sequence (P19327 whole entry): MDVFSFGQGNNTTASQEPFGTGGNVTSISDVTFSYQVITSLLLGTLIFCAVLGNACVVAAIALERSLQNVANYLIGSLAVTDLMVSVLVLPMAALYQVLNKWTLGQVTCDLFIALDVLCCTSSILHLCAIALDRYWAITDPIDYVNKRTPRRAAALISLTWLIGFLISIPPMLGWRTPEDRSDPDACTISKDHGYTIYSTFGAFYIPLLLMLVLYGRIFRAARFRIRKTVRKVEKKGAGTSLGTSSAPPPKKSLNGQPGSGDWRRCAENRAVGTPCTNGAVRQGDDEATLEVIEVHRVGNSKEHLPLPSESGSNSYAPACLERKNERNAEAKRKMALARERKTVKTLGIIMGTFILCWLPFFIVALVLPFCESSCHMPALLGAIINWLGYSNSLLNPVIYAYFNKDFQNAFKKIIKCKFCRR

[3] = biological target: T3, Alpha-2A adrenergic receptor (Homo sapiens, UniProt P08913)
T3 sequence (P08913 whole entry): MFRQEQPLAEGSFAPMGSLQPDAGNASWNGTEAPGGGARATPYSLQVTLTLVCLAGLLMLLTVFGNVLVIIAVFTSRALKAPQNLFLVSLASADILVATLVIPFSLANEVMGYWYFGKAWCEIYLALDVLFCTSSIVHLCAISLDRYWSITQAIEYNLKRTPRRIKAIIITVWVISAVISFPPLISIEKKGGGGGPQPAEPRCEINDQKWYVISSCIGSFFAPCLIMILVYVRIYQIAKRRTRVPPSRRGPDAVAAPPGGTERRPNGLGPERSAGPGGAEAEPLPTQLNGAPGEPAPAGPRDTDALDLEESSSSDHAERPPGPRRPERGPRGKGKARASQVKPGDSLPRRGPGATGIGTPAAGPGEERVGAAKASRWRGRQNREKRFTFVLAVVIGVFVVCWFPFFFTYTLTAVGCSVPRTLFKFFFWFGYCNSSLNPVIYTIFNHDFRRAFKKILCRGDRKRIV

[4] = biological target: Sodium-dependent serotonin transporter (Rattus norvegicus, UniProt P31652)
Sequence of Sodium-dependent serotonin transporter (P31652 whole entry): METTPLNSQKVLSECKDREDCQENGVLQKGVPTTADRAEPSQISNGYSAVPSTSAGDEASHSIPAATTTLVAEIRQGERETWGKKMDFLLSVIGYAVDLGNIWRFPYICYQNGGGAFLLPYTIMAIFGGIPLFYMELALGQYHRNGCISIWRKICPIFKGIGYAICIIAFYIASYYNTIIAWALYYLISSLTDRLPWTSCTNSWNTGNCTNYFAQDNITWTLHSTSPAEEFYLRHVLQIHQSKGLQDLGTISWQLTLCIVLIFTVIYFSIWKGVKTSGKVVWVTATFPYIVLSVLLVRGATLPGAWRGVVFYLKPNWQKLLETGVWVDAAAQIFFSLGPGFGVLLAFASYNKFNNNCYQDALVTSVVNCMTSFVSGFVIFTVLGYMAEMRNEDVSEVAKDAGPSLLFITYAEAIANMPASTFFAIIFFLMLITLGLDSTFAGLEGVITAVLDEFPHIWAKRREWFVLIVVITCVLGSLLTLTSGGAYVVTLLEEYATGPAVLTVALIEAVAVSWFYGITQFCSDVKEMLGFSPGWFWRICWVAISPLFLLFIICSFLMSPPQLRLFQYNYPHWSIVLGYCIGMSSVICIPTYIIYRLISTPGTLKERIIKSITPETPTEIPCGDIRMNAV

| SMILES | Ki [1] [nM] | Ki [2] [nM] | Ki [3] [nM] | Ki [4] [nM] |
| --- | --- | --- | --- | --- |
| O=c1n(CCCN2CCN(c3cccc(Cl)c3)CC2)nc2ccccn12 [2-{3-[4-(3-chlorophenyl)piperazin-1-yl]propyl}[1,2,4]triazolo[4,3-a]pyridin-3(2H)-one] | > 10000 |  |  |  |
| CNCCCN1c2ccccc2CCc2ccccc21 [Desmethylimipramine] | 37 |  |  |  |
| Clc1cccc(N2CCNCC2)c1 [mCPP] | 4700 | 16 | 112 | 218 |
| CN(C)CCC=C1c2ccccc2CCc2ccccc21 | 2.6 | 129 | 114 |  |
| COc1ccc(C(CN(C)C)C2(O)CCCCC2)cc1 (stereo unspecified) [NSC_62923] | > 10000 | > 10000 | > 10000 |  |
| O=c1[nH]n(CCCN2CCN(c3cccc(Cl)c3)CC2)c(=O)n1CCOc1ccccc1 [Triazoledione] | > 10000 | 1370 | 1920 | > 10000 |
| Fc1ccc([C@@H]2CCNC[C@H]2COc2ccc3c(c2)OCO3)cc1 [PAROXETINE] | 42 | > 10000 |  |  |
| CN[C@@H]1CC[C@@H](c2ccc(Cl)c(Cl)c2)c2ccccc21 [[4-(3,4-Dichloro-phenyl)-1,2,3,4-tetrahydro-naphthalen-1-yl]-methyl-amine] | 232 | 3660 |  |  |
| CC(O)c1nn(CCCN2CCN(c3ccc(Cl)cc3)CC2)c(=O)n1CCOc1ccccc1 (stereo unspecified) [NSC_127096] | > 10000 | 56 | 63 | 612 |
| CCc1nn(CCCN2CCN(c3cccc(Cl)c3)CC2)c(=O)n1CCOc1ccccc1 [2-{3-[4-(3-chlorophenyl)piperazin-1-yl]propyl}-5-ethyl-4-(2-phenoxyethyl)-2,4-dihydro-3H-1,2,4-triazol-3-one] | 4570 | 52 |  |  |
